Results as given in patent publication US9487749B2 (priority 2009, dated 2016).
Entries after “also recorded” stand apart in the source; their conditions may differ.

How the values were obtained:
[1] = test system: Salmonella typhimurium; assay: USP Antimicrobial Effectiveness Test (AET) of MSM supplemented TSB; format: cell-based; parameters: key: Colonies too numerous to count (TNTC); conditions: 48 hrs
[2] = test system: ATCC strain 8739 Escherichia coli; assay: Bromcresol Purple colour change with E. coli; format: cell-based
Experimental: Bromcresol Purple is an indicator dye that turns yellow in the presence of E. coli bacteria. […] All concentrations were plated out to 10^−7 dilutions to ascertain the log reduction.
Flake OptiMSM was weighed out using a certified Mettler Toledo AG245 balance SN: 1115210833 and aliquoted for each concentration. […] Tubes were cooled to room temperature which was approximately 20° C. All tubes were then spiked with the same dilution of Escherichia coli that gave a level of colony forming units at 6.0×10^6/mL (6.8). The tubes were then incubated at 25° C. Daily observation for color change was performed during the first seven days. The tubes were mixed periodically to ensure that the OptiMSM was well equilibrated at all times. A positive and negative control was ascertained.

[3] = test system: MDCK cells (ATCC # CCL-34); assay: Cytotoxicity of MSM on host cells; conditions: for Test Product Cytotoxicity: MDCK
Experimental: Determination of test product cytotoxicity. The highest non-cytotoxic concentration of the test product was determined prior to the test.
B. Toxicity Control for Pre-Treatment Test.

[4] = test system: E. coli; assay: E. coli log growth in MSM-lactose broth with or without DMSO; format: cell-based, Escherichia coli
Experimental: Lactose broth, free of both NaCl and of proteins, was used as the media in this experiment. […] Each media composition was initially inoculated with 6.75×10^6 cfu/mL of E. coli. Cultures were incubated at 25° C. for seven days. Aliquots of each culture were taken after 24 hours of culturing and at the end of seven days in culture. Aliquots were serially diluted (with Modified Letheen diluent) and plated on trypto-soy agar plates.

[5] = test system: Pseudomonas aeruginosa; assay: USP Antimicrobial Effectiveness Test (AET) of MSM supplemented TSB; format: cell-based; parameters: key: Colonies too numerous to count (TNTC); conditions: 48 hrs
From the text: (§1) Compounds or formulated products having antimicrobial activity may be evaluated with the United States Pharmacopeia (USP) Antimicrobial Effectiveness Test (AET). The AET involves the addition of specified microorganisms (Candida albicans, Aspergillus niger, Escherichia coli, Pseudomonas aeruginosa and Staphylococcus aureus) directly to a test product at relatively high concentrations to simulate contamination. The product is held for one month, with weekly analysis of microorganism levels. […] For yeast and mold, no increase from the initial inoculums level is permitted. […] Inoculations were made using Candida albicans, Aspergillus niger, Escherichia coli, Pseudomonas aeruginosa and Staphylococcus aureus. Tryptic soy broth (TSB) was used as the culturing media. […] The inoculated media was held for one month, during which time the added microorganisms were enumerated weekly to determine if they were growing, dying off, or remaining near the initial inoculation level. […] The acceptance criteria for antimicrobial effectiveness are described in detail in the USP, herein incorporated by reference.

[6] = test system: Escherichia coli; assay: as above; format: cell-based; parameters: key: Colonies too numerous to count (TNTC); conditions: 48 hrs
From the text: as §1

## CS(C)(=O)=O [MSM, Methylsulfonylmethane]
[1]; 1:100 dilution of MSM in TSB
  AET test results (microorganism count): TNTC
[1]; 1:1000 dilution of MSM in TSB
  AET test results (microorganism count): TNTC
[2]; 5-7% MSM, Day one
  Bromcresol Purple colour of the broth: color change of the broth to yellow
[2]; 8% MSM, listed as order: Day one, Day three
  Bromcresol Purple colour of the broth: slight clearing of color; also recorded: turning to the typical yellow color
[2]; 9% MSM, Day 7
  Bromcresol Purple colour of the broth: turning to a yellow color
[2]; 10%-16% MSM, listed as order: Day 7, Day 30
  Bromcresol Purple colour of the broth: No color change; also recorded: no signs of change
[3]; 0.5%
  Test Product Cytotoxicity: 00
[3]; 1%
  Test Product Cytotoxicity: 00
[3]; 2%
  Test Product Cytotoxicity: 00
[3]; 3%
  Test Product Cytotoxicity: 00
[3]; 4%
  Test Product Cytotoxicity: 00
[3]; 5%
  Test Product Cytotoxicity: 00
[3]; MSM concentrations 6% through 0.5%
  cytotoxic effect: no visible cytotoxic effect
[4]; 11% MSM, 24 hours (maximum)
  reduction of bacterial growth: about 2.2 logs
[4]; 16% MSM, 24 hours
  reduction of bacterial growth: about 1 log
[5]; 1:100 dilution of MSM in TSB
  AET test results (microorganism count): TNTC
[5]; 1:1000 dilution of MSM in TSB
  AET test results (microorganism count): TNTC
[6]; 1:100 dilution of MSM in TSB
  AET test results (microorganism count): TNTC
[6]; 1:1000 dilution of MSM in TSB
  AET test results (microorganism count): TNTC
